Measurements reported in patent US20250326807A1, “CALPROTECTIN BINDING PEPTIDES” (Buehlmann Laboratories AG, priority 2022, published 2025).
Read-outs that look alike come from different tables or passages of the source. Ends that are not written are not given here.

Experiments:
[1] = system: human recombinant calprotectin; assay: Fluorescence polarization affinity measurement of fluorescein-labelled peptides; assay type: binding
Protocol: The reaction mixture was incubated at 30° C. for 1 hr, and the completion of the reaction was assessed by LCMS. The reaction was stopped by addition of HCOOH (200 μL) and the cyclized peptide was lyophilized. The final purification was performed as before with a reversed-phase C18 column (X-bridge peptide BEH C18 5 μm, 300 Å, 10×250 mm, Waters) applying a flow rate of 6 mL/min and an appropriate linear gradient in 40 min. Fractions containing the desired peptide were lyophilized. The purity of the peptides was assessed by analysing around 20 μg of peptide by RP-HPLC (1260 HPLC system, Agilent) using a C18 column (ZORBAX 300SB-C18, 5 μm, 300 Å, 4.6×250 mm, Agilent). Peptides were run at a flow rate of 1 mL min^−1 with a linear gradient of 0-100% of solvent B over 15 min (A: 94.9% H2O, 5% ACN and 0.1% TFA; B: 99.9% ACN and 0.1% TFA). The mass was determined by electrospray ionization mass spectrometry (ESI-MS) in positive ion mode on a single quadrupole liquid chromatography mass spectrometer (LCMS-2020, Shimadzu). In order to measure the affinity of selected and synthesized peptides in fluorescence polarization, calprotectin was serially diluted in 20 mM HEPES, 100 mM NaCl, 2 mM CaCl2, pH 7.5, 1 mM DTT with 0.01% v/v Tween-20. 16 μL of protein were added to 4 μL of the fluorescent peptide (20 nM final concentration) in 96-well microtiter plates (black, half-area). Fluorescence anisotropy was measured on a microwell plate reader (Infinite M200Pro, Tecan), with a filter for excitation at 485 nm and emission at 535 nm. Dissociation constant (Kd) was calculated using the following equation on Prism 5 (GraphPad): […]
were A is anisotropy, Af and Ab are the anisotropy values for free and bound ligand, respectively. [L]T is the concentration of total fluorescent ligand and [P]T the concentration of the protein.
Subsequent fluorescence polarization experiments were performed according to example 1.

[2] = system: Calprotectin; assay: Surface plasmon resonance (Biacore 8K) with immobilized Calprotectin; assay type: binding, human; settings: highest concentration tested (500 nM)
Protocol: In order to complement and validate the results obtained by FP, binding responses and kinetics of peptides with immobilized Calprotectin were analysed by SPR. The experiments were performed using a Biacore™ 8K instrument (GE Healthcare). Calprotectin (at 5 μg/mL) was dissolved in 10 mM acetate buffer (pH 5.0) and immobilized on a CM5 series S chip by standard amine coupling method in running buffer (10 mM HEPES pH 7.4, 150 mM NaCl, 2 mM CaCl2, and 0.005% v/v Tween-20) at 25° C. Typical immobilization levels were 3000 resonance units (RUs). Reference cell was treated in the same way but without the injection of protein. A single concentration for each peptide (500 nM) was injected in running buffer (10 mM HEPES pH 7.4, 150 mM NaCl, 2 mM CaCl2, 0.005% v/v Tween-20 and 0.5% v/v DMSO) to measure the binding level. For the measurement of binding kinetics and dissociation constants, five serial dilutions (3-fold) of peptides were prepared in running buffer (with 0.5% DMSO) and analysed in single cycle kinetics mode with the contact and dissociation times of 90 s and 120 s, respectively.
The structure-activity relationship (SAR) analysis of Peptide 3 was assessed by synthesizing a large number of variants of Peptide 3 in which only one amino acid was altered at a time and the binding affinity was measured by surface plasmon resonance (SPR) and fluorescence polarization (FP).

[3] = target: T1, Calprotectin (Homo sapiens, UniProt P05109+P06702); assay: Sandwich ELISA with biotinylated calprotectin binding peptide and Strep-HRP; settings: incubation times of 60 minutes
T1 sequence (P05109 1-93): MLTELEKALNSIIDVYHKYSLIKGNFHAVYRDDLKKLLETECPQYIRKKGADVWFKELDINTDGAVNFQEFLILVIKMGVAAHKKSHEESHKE
T1 sequence (P06702 1-114): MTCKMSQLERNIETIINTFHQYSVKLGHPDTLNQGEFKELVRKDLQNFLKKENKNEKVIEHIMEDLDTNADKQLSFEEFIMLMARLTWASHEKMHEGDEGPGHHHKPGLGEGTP
Protocol: The wells of 96 well Immulon 4 HBX-Extra High Binding plates (Thermo Fisher Scientific) were coated by overnight incubation at 4° C. with 80 μL of a 0.5 μg/mL solution of anti-calprotectin rabbit polyclonal antibody in Na2HCO3 (0.2 M, pH 9.4). The plates were rinsed four times with 200 μL of washing buffer (25 mM Tris, 150 mM NaCl, 2 mM CaCl2, PH 7.4, with 0.05% v/v Tween-20) per well. Then, all the wells were blocked by incubation with 300 μL of blocking buffer (25 mM Tris, 150 mM NaCl, pH 7.4, with 0.05% v/v Tween-20 and 3% w/v BSA) for 1 h at room temperature with shaking. After this time, the blocking buffer was removed and 80 μL of calprotectin was added in dilution buffer (wash buffer with 1% w/v BSA) for 1h at room temperature with shaking. The wells were washed 4 times with washing buffer. […] The solution was removed and the wells were washed 6times with washing buffer. 80 μL of TMB substrate (ready to use solution, SigmaAldrich) were added for 30 minutes and the reaction was stopped with 40 μL of sulfuric acid (2 M). The absorbance was read at 450 nm in a microwell plate reader (Infinite M200Pro, Tecan).

Substance	affinity to recombinant calprotectin (in words) [1]	other results
ACRTCPLFTCPSCG (not fully specified; cyclised or stapled)	excellent binding affinity	–
CQCPWDLFSQHSLSDCCD (cyclised or stapled)	excellent binding affinity	–
CTQSPCPLYDSHQCSCK (cyclised or stapled)	excellent binding affinity	–
GCDLAHQPCPLYKCTKCP (cyclised or stapled)	excellent binding affinity	–
RCPECVAFPMFQCHWYCG [peptide 3]	excellent binding affinity	SPR signal change [2]: ~40 response units
RSPESVAFPMFQSHWYSG [linear peptide 3, fully linear peptide comprising only serines instead of cysteines]	–	affinity to recombinant calprotectin (in words) ([1]; listed as RSPESVAFPMFQSHWYSG): excellent binding affinity; affinity to recombinant calprotectin (in words) ([1]; listed as fully linear peptide): comparable affinities
SCQCPWDLFSQHSLSDCCD (cyclised or stapled)	excellent binding affinity	–
Strep-HRP biotinylated peptide complex: linear peptide 3-biotin pre-mixed with streptavidin conjugated horse radish peroxidase (RSPESVAFPMFQSHWYSG; also: biotin, end not given here, non-covalent complex with streptavidin-HRP)	–	detectable calprotectin concentration [3]: below 5 nM
TCPLNRTQCPLYACTTCP (not fully specified; cyclised or stapled)	excellent binding affinity	–
VCPCPLFRAHGCSRFSCQ (not fully specified; cyclised or stapled)	excellent binding affinity	–
VCQQTASRCPVWECQRCP (not fully specified; cyclised or stapled)	excellent binding affinity	–
WCTQSPCPLYDSHQCSCK (not fully specified; cyclised or stapled)	excellent binding affinity	–
